From patent publication US7714146B2, “Azulene-oxindole compounds as multiple-kinase inhibitors and useful as anticancer agents” (Industrial Technology Research Institute, priority 2006, dated 2010)

Legend:
Assay type in all cases: biochemical
[1] = molecular target: T1, human c-KIT (Thr544-Val976) (Homo sapiens, UniProt P10721); experiment: c-KIT kinase assay (HTScan kit, DELFIA); settings: for inhibition at 0.1 µM: compound at 0.1 μM, read-out: c-KIT 0.1 μM, % of inhibition relative to control; for inhibition at 1 µM: compound at 1 μM, read-out: c-KIT 1 μM, % of inhibition relative to control
T1 construct: human c-KIT (Thr544-Val976); GST (N); purchased Cell Signaling Technology; host or cells: baculovirus expression system
Method in brief: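 GST-tagged human c-KIT (Thr544-Val976) from baculovirus, with 1.5 μM biotinylated KDR Tyr-996 peptide and 20 μM ATP in HEPES pH 7.5 buffer containing Mg2+/Mn2+ and 1% DMSO. Enzyme and compound pre-incubated 5 min, reaction run 30 min at room temperature; phosphorylation detected by DELFIA.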

[2] = molecular target: T2, human VEGFR-2 (Val789-Val1356) (Homo sapiens, UniProt P35968); experiment: KDR kinase assay (HTScan VEGFR-2 kit, DELFIA); settings: for inhibition at 1 µM: compound at 1 μM, read-out: KDR 1 μM, % of inhibition relative to control; for inhibition at 0.1 µM: compound at 0.1 μM, read-out: KDR 0.1 μM, % of inhibition relative to control
T2 construct: human VEGFR-2 (Val789-Val1356); GST (N); purchased Cell Signaling Technology; host or cells: baculovirus expression system
Method in brief: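 GST-tagged human VEGFR-2 (Val789-Val1356) from baculovirus, with 1.5 μM biotinylated gastrin precursor peptide and 20 μM ATP in HEPES pH 7.5, Mg/Mn, vanadate, DTT, 1% DMSO. Pre-incubation 5 min, reaction 30 min at room temperature; phosphorylation read by DELFIA.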

[3] = molecular target: T3, human PDGFRβ (Gln557-Leu1106) (Homo sapiens, UniProt P09619); experiment: PDGFR-beta kinase assay (HTScan kit, DELFIA); settings: compound at 10 μM
T3 construct: human PDGFRβ (Gln557-Leu1106); GST (N); purchased Cell Signaling Technology; host or cells: baculovirus expression system
Method: (§1) Compounds 1-100 were treated for their efficacy in inhibiting activities of FLT-3, c-KIT, KDR/Flk-1, PDGFR-beta, EGFR, and PKC kinases by biochemical DELFIA (Dissociation Enhanced Lanthanide FIA) assays according to the procedure described below. The assays were conducted by, Division of Cell Engineering, Biomedical Engineering Research Laboratories, Industrial Technology Research Institute, Bldg. 53, 195, sec. 4, Chung Hsing Rd. Chutung, Hsinchu, Taiwan 310, R.O.C.
The PDGFR-beta assay was conducted following the protocol described in Protocol for HTScan® PDGFR-beta Kinase Assay Kit (Cell Signaling Technology®). The assay was conducted under the following conditions: PDGFR-beta source: The GST-Kinase fusion protein was produced using a baculovirus expression system with a construct expressing human PDGFRβ (Gln557-Leu1106) (GenBank Accession No. NM_002609) with an amino-terminal GST tag, substrate: This biotinylated peptide contains the residues surrounding Tyr-589 of FLT-3, vehicle: 1% DMSO, pre-incubation time/temperature: 5 minutes at room temperature, incubation time/temperature: 30 minutes at room temperature, incubation buffer: 60 mM HEPES pH 7.5, 5 mM MgCl2, 5 mM MnCl2, 3 μM Na3VO4, 1.25 mM DTT, 20 μM ATP, and quantitative method: DELFIA® Assay.

[4] = molecular target: T4, human FLT-3 (Arg571-Ser993) (Homo sapiens, UniProt P36888); experiment: FLT-3 kinase assay (HTScan kit, DELFIA); settings: for inhibition at 1 µM: compound at 1 μM, read-out: FLT-3 1 μM, % of inhibition relative to control; for inhibition at 0.1 µM: compound at 0.1 μM, read-out: FLT-3 0.1 μM, % of inhibition relative to control
T4 construct: human FLT-3 (Arg571-Ser993); GST (N); purchased Cell Signaling Technology; host or cells: baculovirus expression system
T4 sequence (P36888 571-993): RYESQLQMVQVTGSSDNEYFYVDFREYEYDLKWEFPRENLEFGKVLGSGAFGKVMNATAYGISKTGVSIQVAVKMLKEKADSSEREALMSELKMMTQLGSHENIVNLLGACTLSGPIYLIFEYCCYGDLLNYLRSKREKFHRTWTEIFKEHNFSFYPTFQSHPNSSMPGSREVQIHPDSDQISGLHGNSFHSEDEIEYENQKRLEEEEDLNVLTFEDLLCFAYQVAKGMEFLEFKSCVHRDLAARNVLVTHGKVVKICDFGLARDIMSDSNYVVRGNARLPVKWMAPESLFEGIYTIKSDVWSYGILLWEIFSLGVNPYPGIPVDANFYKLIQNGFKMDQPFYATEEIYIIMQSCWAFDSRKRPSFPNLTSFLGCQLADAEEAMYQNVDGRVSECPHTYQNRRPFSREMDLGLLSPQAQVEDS
Method in brief: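 GST-tagged human FLT-3 (Arg571-Ser993, baculovirus-expressed) phosphorylated 1.5 μM biotinylated gastrin precursor peptide with 20 μM ATP in HEPES pH 7.5, Mg/Mn buffer and 1% DMSO. After 5 min preincubation, the reaction ran 30 min at room temperature. Phosphorylation was read by DELFIA.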

[5] = molecular target: T5, human EGFR (His672-Ala1210) (Homo sapiens, UniProt P00533); experiment: EGFR kinase assay (HTScan kit, DELFIA); settings: for inhibition at 0.1 µM: compound at 0.1 μM, read-out: EGFR 0.1 μM, % of inhibition relative to control; for inhibition at 1 µM: compound at 1 μM, read-out: EGFR 1 μM, % of inhibition relative to control
T5 construct: human EGFR (His672-Ala1210); GST (N); purchased Cell Signaling Technology; host or cells: baculovirus expression system
Method: as §1
The EGFR assay was conducted following the protocol described in Protocol for HTScan® EGFR Kinase Assay Kit (Cell Signaling Technology®). The assay was conducted under the following conditions: EGFR source: The GST-kinase fusion protein was produced using a baculovirus expression system with a construct expressing human EGFR (His672-Ala1210) (GenBank Accession No. NM_005228) with an amino-terminal GST tag, substrate: 1.5 μM This biotinylated peptide contains the residues surrounding Tyr-66 of PTP1B, vehicle: 1% DMSO, pre-incubation time/temperature: 5 minutes at room temperature, incubation time/temperature: 30 minutes at room temperature, incubation buffer: 60 mM HEPES pH 7.5, 5 mM MgCl2, 5 mM MnCl2, 3 μM Na3VO4, 1.25 mM DTT, 20 μM ATP, and quantitative method: DELFIA® Assay.

T3 sequence (P09619 557-1106): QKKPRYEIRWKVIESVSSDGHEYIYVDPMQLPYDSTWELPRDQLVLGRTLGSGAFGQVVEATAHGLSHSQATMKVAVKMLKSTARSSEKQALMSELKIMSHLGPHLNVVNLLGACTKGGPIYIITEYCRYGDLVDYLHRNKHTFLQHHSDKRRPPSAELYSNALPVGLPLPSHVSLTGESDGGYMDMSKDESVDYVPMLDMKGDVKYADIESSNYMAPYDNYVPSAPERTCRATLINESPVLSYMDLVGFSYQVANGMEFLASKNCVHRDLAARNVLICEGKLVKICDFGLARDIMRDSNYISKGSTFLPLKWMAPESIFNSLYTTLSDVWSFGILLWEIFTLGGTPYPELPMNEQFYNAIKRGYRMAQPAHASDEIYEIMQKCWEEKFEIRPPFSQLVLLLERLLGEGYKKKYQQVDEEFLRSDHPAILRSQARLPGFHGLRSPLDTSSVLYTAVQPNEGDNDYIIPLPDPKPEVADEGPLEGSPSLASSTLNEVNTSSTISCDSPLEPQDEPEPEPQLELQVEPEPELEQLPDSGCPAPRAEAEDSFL
T1 sequence (P10721 544-976): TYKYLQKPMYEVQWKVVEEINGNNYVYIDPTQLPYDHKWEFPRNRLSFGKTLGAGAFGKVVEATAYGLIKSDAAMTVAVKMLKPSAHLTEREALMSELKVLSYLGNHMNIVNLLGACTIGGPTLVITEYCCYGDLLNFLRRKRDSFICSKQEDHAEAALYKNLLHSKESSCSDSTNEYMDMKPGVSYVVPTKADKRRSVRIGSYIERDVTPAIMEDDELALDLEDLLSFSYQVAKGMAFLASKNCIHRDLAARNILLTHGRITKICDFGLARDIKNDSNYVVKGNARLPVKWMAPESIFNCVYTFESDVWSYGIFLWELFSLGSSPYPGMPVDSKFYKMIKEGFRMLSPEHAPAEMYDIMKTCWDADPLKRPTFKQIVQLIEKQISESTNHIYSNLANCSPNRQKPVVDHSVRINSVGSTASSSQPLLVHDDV
T2 sequence (P35968 789-1356): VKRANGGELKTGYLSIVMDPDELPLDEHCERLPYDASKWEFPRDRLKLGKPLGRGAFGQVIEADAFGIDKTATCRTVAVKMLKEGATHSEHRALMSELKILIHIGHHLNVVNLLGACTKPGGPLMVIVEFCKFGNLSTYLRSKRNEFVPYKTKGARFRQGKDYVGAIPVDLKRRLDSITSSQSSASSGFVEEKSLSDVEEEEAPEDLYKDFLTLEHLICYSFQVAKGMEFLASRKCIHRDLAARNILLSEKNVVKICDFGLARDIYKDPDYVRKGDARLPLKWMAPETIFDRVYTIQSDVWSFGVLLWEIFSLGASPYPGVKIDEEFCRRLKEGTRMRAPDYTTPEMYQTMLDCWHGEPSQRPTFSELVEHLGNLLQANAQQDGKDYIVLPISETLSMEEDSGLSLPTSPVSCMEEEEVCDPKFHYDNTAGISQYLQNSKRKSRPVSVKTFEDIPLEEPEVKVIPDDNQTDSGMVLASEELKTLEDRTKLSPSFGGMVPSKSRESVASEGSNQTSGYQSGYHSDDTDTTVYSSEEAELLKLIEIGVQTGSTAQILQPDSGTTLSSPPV
T5 sequence (P00533 672-1210): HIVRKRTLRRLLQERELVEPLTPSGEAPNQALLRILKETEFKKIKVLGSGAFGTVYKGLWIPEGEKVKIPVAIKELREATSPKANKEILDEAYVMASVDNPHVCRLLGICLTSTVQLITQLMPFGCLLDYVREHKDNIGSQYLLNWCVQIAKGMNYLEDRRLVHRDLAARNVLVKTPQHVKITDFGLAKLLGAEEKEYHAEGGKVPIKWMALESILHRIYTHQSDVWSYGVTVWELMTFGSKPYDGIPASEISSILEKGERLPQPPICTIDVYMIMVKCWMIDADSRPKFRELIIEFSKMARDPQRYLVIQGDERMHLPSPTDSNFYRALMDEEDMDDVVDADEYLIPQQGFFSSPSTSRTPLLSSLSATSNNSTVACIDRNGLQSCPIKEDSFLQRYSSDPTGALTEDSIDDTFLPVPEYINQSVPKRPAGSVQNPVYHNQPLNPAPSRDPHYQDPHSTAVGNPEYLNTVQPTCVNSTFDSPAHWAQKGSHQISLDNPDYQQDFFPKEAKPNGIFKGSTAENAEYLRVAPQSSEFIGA

inhibition at 0.1 µM [1] [%] | inhibition at 1 µM [1] [%] | inhibition at 1 µM [2] [%] | PDGFR-β 10 μM, % of inhibition relative to control [3] [%] | inhibition at 1 µM [4] [%] | inhibition at 0.1 µM [2] [%] | inhibition at 0.1 µM [4] [%] | inhibition at 0.1 µM [5] [%] | inhibition at 1 µM [5] [%] | SMILES
24.7 | 24.7 | 10.3 | 3.6 |  |  |  |  |  | O=C1C(=Cc2ccc3cccccc2-3)c2ccccc2N1Cc1ccccc1 [Compound 2, 3-Azulen-1-ylmethylene-1-benzyl-1,3-dihydro-indol-2-one]
11.5 | 11.5 | 33.4 | 14.7 | 3.8 | 12.3 |  |  |  | Cc1cc(C)c2ccc(/C=C3/C(=O)Nc4ccccc43)c-2c(C)c1 [Compound 9, 3-(4,6,8-Trimethyl-azulen-1-ylmethylene)-1,3-dihydro-indol-2-one]
 |  |  | 14.4 | 5.1 |  |  |  |  | O=C1/C(=C/c2ccc3cccccc2-3)c2ccccc2N1C(c1ccccc1)c1ccccc1 [Compound 3, 3-Azulen-1-ylmethylene-1-benzhydryl-1,3-dihydro-indol-2-one]
16.6 | 16.6 | 40.6 | 5.3 | 30.3 | 15.6 | 28.8 |  |  | O=C1Nc2ccc(Cl)cc2/C1=C\c1ccc2cccccc1-2 [Compound 22, 3-Azulen-1-ylmethylene-5-chloro-1,3-dihydro-indol-2-one]
14.7 | 14.7 | 34.3 | 7.3 |  | 17.3 |  |  |  | Cc1cc(/C=C2/C(=O)Nc3ccccc32)c2c(C)ccc(C(C)C)cc1-2 [Compound 12, 3-(5-Isopropyl-3,8-dimethyl-azulen-1-ylmethylene)-1,3-dihydro-indol-2-one]
8.4 | 8.4 | 38.5 | 18.6 |  | 22.1 |  |  |  | Cc1cc(C)c2ccc(/C=C3/C(=O)N(Cc4ccccc4)c4ccccc43)c-2c(C)c1 [Compound 10, 1-Benzyl-3-(4,6,8-trimethyl-azulen-1-ylmethylene)-1,3-dihydro-indol-2-one]
2.8 | 2.8 | 20.1 | 3.6 |  | 15.4 | 7.7 |  |  | COC(=O)c1cc(/C=C2\C(=O)Nc3ccccc32)c2cccccc1-2 [Compound 16, 3-(2-Oxo-1,2-dihydro-indol-3-ylidenemethyl)-azulene-1-carboxylic acid methyl ester]
60.4 | 60.4 | 59.1 | 7.9 | 34.7 | 33.9 | 5 |  |  | O=C1Nc2ccc(F)cc2/C1=C/c1ccc2cccccc1-2 [Compound 26, 3-Azulen-1-ylmethylene-5-fluoro-1,3-dihydro-indol-2-one]
72.6 | 72.6 | 8.4 |  | 79 | 2.3 | 40.5 | 0.8 | 1.7 | Cc1cc(/C=C2/C(=O)Nc3ccc(F)cc32)c2cccccc1-2 [Compound 38, 5-Fluoro-3-(3-methyl-azulen-1-ylmethylene)-1,3-dihydro-indol-2-one]

The next lines start with the compound.

SMILES | inhibition at 0.1 µM [1] [%] | inhibition at 1 µM [1] [%] | inhibition at 1 µM [2] [%] | PDGFR-β 10 μM, % of inhibition relative to control [3] [%] | inhibition at 1 µM [4] [%] | inhibition at 0.1 µM [2] [%] | inhibition at 0.1 µM [4] [%] | inhibition at 0.1 µM [5] [%] | inhibition at 1 µM [5] [%]
O=C1Nc2ccc([N+](=O)[O-])cc2/C1=C/c1ccc2cccccc1-2 [Compound 8, 3-Azulen-1-ylmethylene-5-nitro-1,3-dihydro-indol-2-one] | 36.4 | 36.4 | 55.9 | 16.2 | 11.5 | 26.4 |  |  | 
O=C1Nc2ccccc2/C1=C\c1c2cccccc-2[nH]c1=O [Compound 27, 3-(2-Oxo-1,2-dihydro-indol-3-ylidenemethyl)-1H-cyclohepta[b]pyrrol-2-one] | 25.7 | 25.7 | 39.5 | 5.3 | 30.9 | 25.9 | 8.6 |  | 
O=C1Nc2ccc(Br)cc2/C1=C/c1ccc2cccccc1-2 [Compound 6, 3-Azulen-1-ylmethylene-5-bromo-1,3-dihydro-indol-2-one] | 36.6 | 36.6 | 29.7 | 35.5 |  | 19.6 |  |  | 
O=C1Nc2ccccc2/C1=C/c1cc2cccccc-2c1 [Compound 33, 3-Azulen-2-ylmethylene-1,3-dihydro-indol-2-one] | 63.1 | 63.1 | 50.8 |  | 85.6 | 24.6 | 50.5 | 15.2 | 13
O=C1Nc2ccc(Br)cc2/C1=C\c1ccc2cccccc1-2 [Compound 7, 3-Azulen-1-ylmethylene-5-bromo-1,3-dihydro-indol-2-one] | 30.9 | 30.9 | 28.8 | 4.7 | 40.1 | 29.5 | 17.8 |  | 
O=C1Nc2ccccc2/C1=C\c1cc2cccccc-2c1 [Compound 32, 3-Azulen-2-ylmethylene-1,3-dihydro-indol-2-one] | 60.3 | 60.3 | 6.2 |  | 89.5 |  | 48.5 | 7.7 | 13.7
